The source of these data is patent publication US12129235B2, “TSPO binders” (The University Court of the University of Glasgow, priority 2018, dated 2024).

Read-outs that look alike come from different tables or passages of the source.

In data set [1] the test system is TSPO. Nature of the data set: Competition binding assay against ^3H-PK11195 in human brain homogenate (HAB, MAB, LAB). Conditions: for LAB:HAB affinity ratio: rs6971 polymorphism; for difference between HAB and LAB in individually calculated affinity values: unpaired t-test. The method, then: (§1) All studies using human tissue were conducted in accordance with the East of Scotland Research Ethics Service (Edinburgh Brain Bank, 11/ES/0022). […] To exclude sex dependent differences in TSPO binding (Fairweather et al.), only male samples were utilized in this study. Sample tissues were homogenized in 10× w/v buffer (50 mM Tris-Base, pH 7.4, 4° C.) before centrifugation (32,000 g, 10 min, 4° C.). Tissue pellets were then resuspended in 10× w/v buffer and centrifuged again before re-suspending them in buffer (2 mL). Samples were then assessed for protein concentration using the Bio-Rad protein assay (Bio-Rad, USA), aliquoted and stored at −80° C. until use.
(§2) Competition binding assays were carried out as previously reported (Blair et al. (Med. Chem. Commun.)). […] A concentration of 8 μM was used to determine non-specific binding for each ligand. Binding was terminated with the addition of 2 mL of ice cold buffer before being immediate filtered over a Whatman GF/B filters (Whatman, UK) pre-treated with 0.3% polyethylenimine (Sigma-Aldrich, USA) using a Brandel harvester (Brandel, USA). Filter paper was then removed, placed into 2.5 mL of Optiphase HiSafe 3 (Perkin Elmer, USA) and counted 48 hours later on a Hidex 300 SL (Hidex, Finland). […] All binding assays were performed in triplicate. GraphPad Prism version 6 (GraphPad Software, USA) was used to fit all binding affinity curves. A comparison of a one-site and two-site fitting was made using the least squares algorithm and model selection was compared using an F test. The null hypothesis (that one-site fitting as more suitable) was rejected if p<0.05. The mean % SB normalized to the minimum inhibition of each group (HAB, MAB or LAB) was used to determine whether a one-site or two-site fitting was appropriate, and to subsequently calculate LAB:HAB ratio. Affinity values (Ki) were calculated by fitting individual tissue samples based on the mean group fitting.

The test system of data set [2] is TSPO. Description: Competition binding assay against ^3H-PK11195 in human heart homogenate (HAB, MAB, LAB). Conditions: for LAB:HAB ratio: rs6971 polymorphism; for difference between HAB and LAB in individually calculated affinity values: unpaired t-test. The method, then:
as §1, §2

Data set [3] concerns the target TSPO (Homo sapiens, UniProt P30536). Nature of the data set: Competition binding assay against ^3H-PK11195 in human brain homogenate (HAB, MAB, LAB). Also on record: other: human brain; other: human heart. The method, then: as §1
Competition binding assays were carried out as previously reported (Blair et al. (Med. Chem. Commun.)). […] A concentration of 8 μM was used to determine non-specific binding for each ligand. Binding was terminated with the addition of 2 mL of ice cold buffer before being immediate filtered over a Whatman GF/B filters (Whatman, UK) pre-treated with 0.3% polyethylenimine (Sigma-Aldrich, USA) using a Brandel harvester (Brandel, USA). Filter paper was then removed, placed into 2.5 mL of Optiphase HiSafe 3 (Perkin Elmer, USA) and counted 48 hours later on a Hidex 300 SL (Hidex, Finland). […] Affinity values (Ki) were calculated by fitting individual tissue samples based on the mean group fitting.

A short description of data set [4]: Pharmacokinetic/Pharmacodynamic study of PK11195 tissue exposure. The data set is classed as in vivo. The settings on record: Sprague-Dawley, rat, rats, mean±SEM, n=3, read-out: exposure level.
For data set [5], the system named is TSPO. The settings on record: literature (Ikawa et al.); cited from earlier work.
The subject of data set [6] is TSPO. Conditions: literature; cited from earlier work.
The conditions of data set [7]: in humans; literature; cited from earlier work.

Chain of TSPO (Homo sapiens, UniProt P30536) (P30536 whole entry): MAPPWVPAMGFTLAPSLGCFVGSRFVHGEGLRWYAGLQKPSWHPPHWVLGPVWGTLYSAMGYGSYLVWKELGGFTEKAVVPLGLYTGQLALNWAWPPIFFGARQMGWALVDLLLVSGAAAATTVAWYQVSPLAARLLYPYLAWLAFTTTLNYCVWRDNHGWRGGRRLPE

As to `CCN(CC)C(=O)c1nc2ccccc2c(-c2ccccc2)c1CF` [AB5186], in the data set on TSPO [1], the “LAB:HAB affinity ratio” value is on record as 9; the “difference between HAB and LAB in individually calculated affinity values” is reported as “significant difference”. In addition, the “LAB:HAB ratio” value in the data set with TSPO [2] is 7.
As for `CC[C@@H](C)N(C)C(=O)c1nc2ccccc2c(-c2ccccc2)c1CF` [LW223, (R)-(N-sec-Butyl)-3-fluoromethyl-N-methyl-4-phenylquinoline-2-carboxamide], in the data set on TSPO [1], the “LAB:HAB affinity ratio” value worked out at 1; the “difference between HAB and LAB in individually calculated affinity values” is recorded as “no significant difference”. Besides, the “mean affinity relative to PK11195” value at TSPO [3] stood at 2 times. For the same compound, the Ki on TSPO [3] (read-out: mean affinity (Ki)) turned out to be 0.6 nM. Moreover, in the data set with TSPO [2], the “LAB:HAB ratio” value turned out to be 1; the “difference between HAB and LAB in individually calculated affinity values” is given as “no significant difference”.
For the compound `COc1ccccc1CN(C(C)=O)c1cnccc1Oc1ccccc1` [PBR28], in the data set with TSPO [1], the “LAB:HAB affinity ratio” value is recorded as 49; the “difference between HAB and LAB in individually calculated affinity values” is given as “significant difference”. Moreover, the “LAB:HAB ratio” value with TSPO [2] is reported as 48.
Turning to `CCC(C)N(C)C(=O)c1cc2ccccc2c(-c2ccccc2Cl)n1` (centres unmarked) [PK11195], the “difference between HAB and LAB in individually calculated affinity values” with TSPO [1] and in the data set on TSPO [2] was “no significant difference” each time. In addition, the concentration at 1 h in data set [4] (brain) is 11 ± 1.99 ng/mL; in data set [4] (heart), 29.3 ± 3.93 ng/mL; in data set [4] (lungs) it was 38.9 ± 2.24 ng/mL.
With `CC[C@@H](C)N([11CH3])C(=O)c1nc(-c2ccccc2Cl)c2ccccc2n1` [^11C-ER176], the “LAB:HAB ratio in vivo” value with TSPO [5] is listed as “around 3”. Further, the “LAB:HAB ratio in vitro” value in the data set with TSPO [6] is listed as 1.3.
Regarding `CCC(C)N(C)C(=O)c1cc2ccccc2c(-c2ccccc2Cl)n1` (centres unmarked) [^11C-PK11195], the plasma free fraction in data set [7] is listed as 1-6%.
